# Experimental data taken from ChEMBL document CHEMBL1133201, “Synthesis and cytotoxic activity of acetogenin analogues” (Bioorg Med Chem Lett, 2000).
# Test system: L1210
# Assay: In vitro inhibitory activity was tested against L1210 leukemia cells
# Type: functional, cell-based
# Conditions: Mus musculus
row,SMILES,IC50
1,CCCCCCCCCCCC[C@@H](O)[C@H]1CC[C@H]([C@H](O)CCCC[C@H](O)CCCCC[C@@H](O)CC2=CC(C)OC2=O)O1 (some centres undefined) [ANNONACIN],42 nM
2,CCCCCCCCCC[C@@H](O)[C@@H]1CC[C@@H]([C@@H]2CC[C@@H]([C@H](O)CCCCCCCCCC(O)CC3=CC(C)OC3=O)O2)O1 (some centres undefined) [BULLATACIN],0.4 nM
3,CC(=O)CC1C[C@@H](CCCCCCCC#C[C@@H](O)COCCOC[C@@H](O)OC2CC[C@]3(C)C(=CC[C@@H]4[C@H]5CC[C@@H]([C@@H](C)CCCC(C)C)[C@]5(C)CC[C@H]43)C2)OC1=O (some centres undefined),2800 nM
4,CCCCCCCCCC[C@H](O)[C@H]1CC[C@H]([C@H]2CC[C@H]([C@H](O)CCCCCCCCCC[C@@H]3CC(CC(C)=O)C(=O)O3)O2)O1 (some centres undefined) [BULLATACINONE],16 nM
5,COc1ccc([C@@H](O)COCCOC[C@@H](O)C#CCCCCCCC[C@@H]2CC(CC(C)=O)C(=O)O2)cc1 (some centres undefined),32000 nM
6,CCCCCCCCCC[C@@H](O)COCCOC[C@@H](O)C#CCCCCCCC[C@@H]1CC(CC(C)=O)C(=O)O1 (some centres undefined),1000 nM

# The remaining lines, values ahead:
row,IC50,SMILES
1,19800 nM,CC(=O)CC1C[C@@H](CCCCCCCC#C[C@@H](O)COCCOC[C@@H](O)c2ccccc2)OC1=O (some centres undefined)
2,2500 nM,CCCCN(CCCC)[C@@H](O)COCCOC[C@@H](O)C#CCCCCCCC[C@@H]1CC(CC(C)=O)C(=O)O1 (some centres undefined)
3,> 10000 nM,COc1ccc([C@H](O)COCCOC[C@H](O)C#CCCCCCCC[C@@H]2CC(CC(C)=O)C(=O)O2)cc1 (some centres undefined)
4,3300 nM,CC(=O)CC1C[C@@H](CCCCCCCC#C[C@@H](O)COCCOC[C@@H](O)c2ccc(C(F)(F)F)cc2)OC1=O (some centres undefined)
5,28700 nM,CC(=O)CC1C[C@@H](CCCCCCCC#C[C@@H](O)COCCOC[C@@H](O)N2CCCCC2)OC1=O (some centres undefined)
6,21600 nM,CC(=O)CC1C[C@@H](CCCCCCCC#C[C@H](O)COCCOC[C@H](O)c2ccccc2)OC1=O (some centres undefined)
7,3500 nM,CCCCCCCCCC[C@H](O)COCCOC[C@H](O)C#CCCCCCCC[C@@H]1CC(CC(C)=O)C(=O)O1 (some centres undefined)
8,3000 nM,CC(=O)CC1C[C@@H](CCCCCCCC#C[C@H](O)COCCOC[C@H](O)c2ccc3ccccc3c2)OC1=O (some centres undefined)
